Tests used:
[1] = Solubility in acetonitrile/water; type: physicochemical; conditions: solvent acetonitrile/water as given in the value
[2] = test system: MOPC-315 myeloma; conditions: administered along with melphalan; cited from earlier work
[3] = test system: NS-1 mouse myeloma; conditions: repeated administration as monotherapy soon after inoculation with relatively low doses of tumor; cited from earlier work
[4] = test system: Cloudman S-91 melanoma; conditions: melanomas already established; cited from earlier work
[5] = test system: B16 melanoma; conditions: administered along with cyclophosphamide; cited from earlier work

Row | SMILES | Solubility [1] | benefit as adjunct to chemotherapy [2] | survival rates [3] | percent survival [4] | benefit as adjunct to chemotherapy [5]
1 | O=C(CCNC(=O)OCc1ccccc1)NC(CS)C(=O)O (stereo not drawn) [Cbz-beta-Ala-Cys] | Soluble in 20% Acetonitrile/Water | – | – | – | –
2 | O=C(CCNC(=O)OCc1ccccc1)N[C@@H](CSSC[C@H](NC(=O)CCNC(=O)OCc1ccccc1)C(=O)O)C(=O)O [Cbz-βAla-Cystine-βAla-Cbz, Cbz-beta-Ala-Cystine-beta-Ala-Cbz] | Soluble in 30% Acetonitrile/water | – | – | – | –
3 | NCCC(=O)NCCSSCCNC(=O)CCN [β-alethine, Beta-alanyl cysteamine disulfide] | – | beneficial adjunct to chemotherapy | significantly increased survival rates | increase the percent survival | beneficial adjunct to chemotherapy

Reference: US6414114B2, “Disulfides and thiol compounds” (Dovetail Technologies, Inc., priority 1998, dated 2002)
